From patent US20110281815A1, “Parental formulations of gemcitabine derivatives” (CLAVIS PHARMA AS, priority 2009, published 2011)

Assays:
[1] = formulation of elacytarabine model substance with egg PC/egg PG; type: physicochemical
Experimental: (§1) It was investigated if the unexpectedly high concentration (15 mg/mL-60 mg/mL) of the active compound achieved in the formulations described in Examples 1 through 7, and under section 6, Manufacture of the Formulation, was unique to a chemical compound as shown in Formula (I) or if the method was of a more general nature. The structurally similar compound elacytarabine (ara-C-5′-elaidic acid ester) as shown in Formula (II) was used as a related model substance. This model substance contains the same 5′-elaidic acid ester moiety as found in Formula (I) (R1=R3=H, R2=elaidate), and the same cytosine nucleoside ring system. The minor difference between the compounds described in Formula (I) and Formula (II) is the substitution at the 2′ position of the ribose ring for Formula (I) contains geminal fluorines, while Formula (II) contains H and OH.
It is concluded that the Formula I compound provides unexpectedly unique attributes of high loading and stability to the described lipid based formulations.

[2] = rapid deamination to dFdU; cited from earlier work
[3] = drug load / particle formation of gemcitabine-5′-elaidate in alternative formulations; type: physicochemical
Experimental: Particle formation without the use of phospholipids was not successful. Gemcitabine-5′-elaidic acid ester was dissolved in ethanol in a weight ratio of 1:24. The mixture was stirred until all solid material was dissolved.
The ethanol solution was thereafter injected into a […] with vigorous mixing. The weight ratio of ethanol solution to the glycerol solution was 1:12. The mixture appeared to contain conglomerates as determined by visual inspection.
Mixed micellar formulations with phospholipids and non-ionic surfactants were not successful in preparation of high drug load formulations. Mixed micelles were prepared using a 1:1 weight ratio of egg lecithin:Tween 20 for a final concentration of 50 mg/mL dissolved solids.
Liposomal formulations with egg lecithin and oleic acid were not successful in preparation of high drug load formulations. Liposomes were prepared by means of dissolution of gemcitabine-5′-elaidate, egg lecithin, and oleic acid in a molar ratio of 1:14.4:2 in ethanol. The solvent was evaporated and the residual solids dispersed into 2.6% glycerol in water using an Ultraturrax followed by high pressure homogenization. Stable formulations could be achieved up to 3 mg/mL gemcitabine-5′-elaidate.
as §1

[4] = human, in vivo
Experimental: (§2) The intravenous formulation of gemcitabine-5′-elaidic acid ester as described in Example 1 was used in a phase I, first in human clinical study. The aims of this study were to determine the safety, toxicity, MTD (Maximum Tolerated Dose) and the RD (Recommended Dose) of gemcitabine-5′-elaidic acid ester, to describe its pharmacokinetic (PK) characteristics, and to assess its preliminary antitumor activity.
(§3) Gemcitabine-5′-elaidic acid ester was administered on days (d) 1, 8 and 15 every 4 week by a 30 min IV infusion. The dose range was from 30 to 1600 mg/m2/d. 43 patients were enrolled and the RD was established at 1250 mg/m^2/d. […] Stabilisation of disease (>3 months) reported in 7 patients (pancreas, colon and ovarian cancer) lasting between 3.5 to >8 months.

[5] = system: pancreas, colon and ovarian cancer; assay: phase I clinical study: preliminary antitumor activity; type: in vivo, human
Experimental: as §2, §3

[6] = human, in vivo; remark: listed apart in the source
Experimental: as §2, §3
Gemcitabine-5′-elaidic acid ester was detected in plasma up to 24 hrs post-dosing. […] Urinary excretion of the main metabolite, dFdU, during the first 24 hrs was 48-71% of the dose.

[7] = buffer, pH 7.4

## CCCCCCCC/C=C/CCCCCCCC(=O)OC[C@H]1O[C@@H](n2ccc(N)nc2=O)[C@@H](O)[C@@H]1O [Elacytarabine, ara-C-5′-elaidic acid ester]
[1]; Egg PC/egg PG, 10 mg/mL
  Particle size (Z-.avg): (Z-.avg) 97 nm
  outcome after filtration: Large lipid agglomerates
[1]; Egg PC/egg PG, 15 mg/mL, storage at 2-8° C.
  outcome upon storage: Precipitation
[1]; Egg PC/egg PG, elacytarabine concentration 10 mg/mL
  Final content: Final content 8 mg/ml.
[1]; Egg PC/egg PG, elacytarabine concentration 15 mg/mL
  Final content: 12 mg/mL
[1]; Egg PC/egg PG, elacytarabine concentration 20 mg/mL, during homogenisation
  formulation outcome: Precipitation during
[1]; Egg PC/egg PG, elacytarabine concentration 30 mg/mL, during solvent injection
  formulation outcome: Precipitation
[1]; Formula II compound included in excess of 20 mg/mL
  formulation outcome: precipitation during processing
[1]; target concentrations of less than 15 mg/mL, precipitation and agglomeration
  formulation outcome on storage: unstable during storage

## Nc1ccn([C@@H]2O[C@H](CO)[C@@H](O)C2(F)F)c(=O)n1 [gemcitabine, 2′,2′-difluorodeoxy-cytidine]
[2]
  half-life of gemcitabine in plasma: approximately 10 minutes

## CCCCCCCC/C=C/CCCCCCCC(=O)OC[C@H]1O[C@@H](n2ccc(N)nc2=O)C(F)(F)[C@@H]1O [gemcitabine-5′-elaidic acid ester]
[3]; 1:1 egg lecithin:Tween 20, 50 mg/mL dissolved solids
  maximal concentration of gemcitabine-5′-elaidate in mixed micelles: less than 5 mg/mL
[3]; egg lecithin and oleic acid liposomes, 2.6% glycerol in water
  concentration up to which stable liposomal formulations could be achieved: up to 3 mg/mL
[3]; egg lecithin with glycholic acid as surfactant
  maximal concentration of gemcitabine-5′-elaidate in mixed micelles: 2 mg/mL
[3]; ethanol solution injected into water for injection, homogenization attempted
  particle formation without phospholipids: not capable of forming stable particles
[4]
  most frequent toxicities: nausea, fatigue, vomiting and anorexia
[4]; iv
  RD (Recommended Dose): 1250 mg/m^2/d
  recommended dose for intravenous administration: 1250 mg/m^2
[5]; 43 patients enrolled, pancreas, colon and ovarian cancer
  stabilisation of disease (>3 months), number of patients: 7 patients
[5]; one patient with ovarian cancer
  reduction in tumor mass: 28.3%
[6]
  AUC for gemcitabine (dFdC) exposure versus intravenous gemcitabine at comparable dose levels: significantly higher
[6]; iv
  time detected in plasma post-dosing: up to 24 hrs
[7]
  half life (hydrolytic degradation): approximately 30 minutes
